Results published in ChEMBL document CHEMBL3817764, “Pyrimidine-based antimalarials: design strategies and antiplasmodial effects” (Medchemcomm, 2016).

Legend:
Calf thymus DNA [1] = experiment: Binding affinity to calf thymus DNA assessed as induction of hypochromic shift in intensity of quinoline absorption band at 331 nm at 7.1 uM; type: nucleic-acid assay; conditions: Bos taurus
Calf thymus DNA [2] = experiment: Binding affinity to calf thymus DNA assessed as induction of red shift at 7.1 uM; type: nucleic-acid assay; conditions: Bos taurus
Calf thymus DNA [3] = experiment: Binding affinity to calf thymus DNA assessed as melting temperature (reference value: 59.5 degC); type: nucleic-acid assay; conditions: Bos taurus
Plasmodium falciparum [4] = experiment: Antiplasmodial activity against chloroquine-sensitive Plasmodium falciparum D6 by NBT assay; type: functional, organism-based
Plasmodium falciparum [5] = experiment: Antiplasmodial activity against chloroquine-resistant Plasmodium falciparum W2 by NBT assay; type: functional, organism-based
Plasmodium falciparum [6] = experiment: Antimalarial activity against Plasmodium falciparum V1/S harboring DHFR N51I+C59R+S108N+I164L quadruple mutant assessed as reduction parasite growth by [3H]-hypoxanthine incorporation assay; type: functional, organism-based
Plasmodium falciparum [7] = experiment: Antimalarial activity against chloroquine-sensitive Plasmodium falciparum D6 assessed as plasmodial LDH activity; type: functional, organism-based
Plasmodium falciparum [8] = experiment: Antimalarial activity against chloroquine-resistant Plasmodium falciparum W2 assessed as plasmodial LDH activity; type: functional, organism-based
[9] = Oral bioavailability in Sprague-Dawley rat plasma by LC/MS analysis; type: ADME, organism-based
Plasmodium berghei = experiment: Antiplasmodial against Plasmodium berghei in rat malaria model assessed as parasite suppression at 30 mg/kg measured after 4 days; type: functional
[10] = target: Dihydroorotate dehydrogenase (quinone), mitochondrial (Homo sapiens, UniProt Q02127); experiment: Inhibition of human DHODH
Chain of Dihydroorotate dehydrogenase (quinone), mitochondrial (Q02127 whole entry): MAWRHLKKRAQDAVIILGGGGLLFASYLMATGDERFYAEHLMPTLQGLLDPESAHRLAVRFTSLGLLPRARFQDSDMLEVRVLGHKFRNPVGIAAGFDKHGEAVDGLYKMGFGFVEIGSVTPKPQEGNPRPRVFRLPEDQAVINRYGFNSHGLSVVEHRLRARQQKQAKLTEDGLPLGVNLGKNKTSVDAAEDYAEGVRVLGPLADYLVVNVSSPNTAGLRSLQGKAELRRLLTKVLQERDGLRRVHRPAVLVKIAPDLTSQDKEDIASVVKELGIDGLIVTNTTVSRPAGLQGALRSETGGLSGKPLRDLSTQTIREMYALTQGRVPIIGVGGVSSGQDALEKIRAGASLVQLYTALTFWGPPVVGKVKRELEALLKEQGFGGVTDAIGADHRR

SMILES | IC50 (Plasmodium falciparum [4]) [nM] | IC50 (Plasmodium falciparum [5]) [nM] | IC50 (Plasmodium falciparum [7]) [nM] | IC50 (Plasmodium falciparum [8]) [nM] | further results
Clc1ccc2c(NCCCNc3nccc(N4CCCCC4)n3)ccnc2c1 | – | – | – | – | Activity (Calf thymus DNA [1]): 23%; Activity (Calf thymus DNA [2]): 14 nm; Tm (Calf thymus DNA [3]): 67.8 °C
Clc1ccc2c(NCCNc3nc(Cl)cc(Cl)n3)ccnc2c1 | 6 | 16 | – | – | –
Cc1cc(N2CCN(C)CC2)nc(NCCCCNc2ccnc3cc(Cl)ccc23)n1 | 6 | 16 | – | – | –
Clc1ccc2c(NCCCNc3nccc(N4CCOCC4)n3)ccnc2c1 | 6 | 16 | – | – | –
Clc1ccc2c(NCCNc3nccc(N4CCOCC4)n3)ccnc2c1 | 6 | 16 | – | – | –
CN1CCN(c2ccnc(NCCNc3ccnc4cc(Cl)ccc34)n2)CC1 | 6 | 16 | – | – | –
Cc1cc(N2CCOCC2)nc(NCCNc2ccnc3cc(Cl)ccc23)n1 | 6 | 16 | – | – | –
CCN1CCN(c2ccnc(NCCNc3ccnc4cc(Cl)ccc34)n2)CC1 | 6 | 16 | – | – | –
Clc1ccc2c(NCCNc3nccc(N4CCCCC4)n3)ccnc2c1 | 6 | 16 | – | – | –
CCN1CCN(c2cc(C)nc(NCCCCNc3ccnc4cc(Cl)ccc34)n2)CC1 | 6 | 16 | – | – | –
Clc1ccc2c(NCCCNc3nc(Cl)cc(Cl)n3)ccnc2c1 | 6 | 16 | – | – | –
Clc1ccc2c(NCCNc3nccc(Cl)n3)ccnc2c1 | 6 | 16 | – | – | –
Cc1cc(N2CCOCC2)nc(NCCCNc2ccnc3cc(Cl)ccc23)n1 | 6 | 16 | – | – | –
Cc1cc(N2CCCCC2)nc(NCCCCNc2ccnc3cc(Cl)ccc23)n1 | 6 | 16 | – | – | –
Cc1cc(N2CCOCC2)nc(NCCCCCCNc2ccnc3cc(Cl)ccc23)n1 | 6 | 16 | – | – | –
Cc1cc(N2CCOCC2)nc(NCCCCNc2ccnc3cc(Cl)ccc23)n1 | 6 | 16 | – | – | –
Cc1cc(N2CCCCC2)nc(NCCCCCCNc2ccnc3cc(Cl)ccc23)n1 | 6 | 16 | – | – | –
CCc1nc(N)nc(N)c1OCCCOc1ccccc1CCC(=O)O | – | – | – | – | EC50 (Plasmodium falciparum [6]): 56 nM
CCN1CCN(c2cc(C)nc(NCCCNc3ccnc4cc(Cl)ccc34)n2)CC1 | 6 | 16 | – | – | –
Cc1cc(NCCNc2ccnc3cc(Cl)ccc23)nc(NCCCCO)n1 | – | – | 50 | 50 | –
OCCCCCCNc1nccc(NCCNc2ccnc3cc(Cl)ccc23)n1 | – | – | 50 | 50 | –
Clc1ccc2c(NCCNc3cc(Cl)nc(N4CCOCC4)n3)ccnc2c1 | – | – | 50 | 50 | –
Cc1cc(N2CCN(C)CC2)nc(NCCCNc2ccnc3cc(Cl)ccc23)n1 | 6 | 16 | – | – | –

SMILES | IC50 (Plasmodium falciparum [4]) [nM] | IC50 (Plasmodium falciparum [5]) [nM] | IC50 (Plasmodium falciparum [7]) [nM] | IC50 (Plasmodium falciparum [8]) [nM] | further results
Cc1cc(NCCCNc2ccnc3cc(Cl)ccc23)nc(NCCCO)n1 | – | – | 50 | 50 | –
Cc1cc(NCCCNc2ccnc3cc(Cl)ccc23)nc(NCCCCCCO)n1 | – | – | 50 | 50 | –
Cc1cc(N2CCN(C)CC2)nc(NCCNc2ccnc3cc(Cl)ccc23)n1 | 6 | 16 | – | – | –
OCCCNc1nccc(NCCCCNc2ccnc3cc(Cl)ccc23)n1 | – | – | 50 | 50 | –
Cc1cc(N2CCCCC2)nc(NCCCNc2ccnc3cc(Cl)ccc23)n1 | 6 | 16 | – | – | –
Cc1cc(N2CCN(c3ccnc4cc(Cl)ccc34)CC2)nc(Nc2ccc(Br)cc2)n1 | – | – | 130 | 130 | –
Cc1nc(N)nc(N)c1OCCCOc1cc(Cl)c(Cl)cc1Cl | – | – | – | – | bioavailability [9]: 83%
Cc1cc(NCCCNc2ccnc3cc(Cl)ccc23)nc(NCCCCO)n1 | – | – | 50 | 50 | –
Cc1cc(NCCCCNc2ccnc3cc(Cl)ccc23)nc(NCCCO)n1 | – | – | 50 | 50 | –
Fc1ccc(Nc2nccc(N3CCN(c4ccnc5cc(Cl)ccc45)CC3)n2)cc1 | – | – | 130 | 130 | –
CC1(C)N=C(N)N=C(N)N1OCCCOc1cc(Cl)c(Cl)cc1Cl.Cl | – | – | – | – | bioavailability [9]: 1%
Cc1cc(N2CCN(C)CC2)nc(NCCCCCCNc2ccnc3cc(Cl)ccc23)n1 | 6 | 16 | – | – | –
Cc1cc(N2CCN(c3ccnc4cc(Cl)ccc34)CC2)nc(Nc2ccccc2)n1 | – | – | 130 | 130 | –
COc1ccc(Nc2nccc(N3CCN(c4ccnc5cc(Cl)ccc45)CC3)n2)cc1 | – | – | 130 | 130 | –
OCCCCCNc1nccc(NCCCNc2ccnc3cc(Cl)ccc23)n1 | – | – | 50 | 50 | –
Clc1ccc2c(N3CCN(c4ccnc(Nc5ccc(Br)cc5)n4)CC3)ccnc2c1 | – | – | 130 | 130 | –
OCCCCCCNc1nccc(NCCCNc2ccnc3cc(Cl)ccc23)n1 | – | – | 50 | 50 | –
OCCCCCNc1nccc(NCCCCNc2ccnc3cc(Cl)ccc23)n1 | – | – | 50 | 50 | –
OCCCCNc1nccc(NCCCNc2ccnc3cc(Cl)ccc23)n1 | – | – | 50 | 50 | –
Cc1cc(NCCCCNc2ccnc3cc(Cl)ccc23)nc(NCCO)n1 | – | – | 50 | 50 | –
CCN1CCN(c2ccnc(NCCCNc3ccnc4cc(Cl)ccc34)n2)CC1 | 6 | 16 | – | – | –
Cc1ccc(Nc2nc(C)cc(N3CCN(c4ccnc5cc(Cl)ccc45)CC3)n2)cc1 | – | – | 130 | 130 | –
OCCCCCCNc1nccc(NCCCCNc2ccnc3cc(Cl)ccc23)n1 | – | – | 50 | 50 | –

SMILES | IC50 (Plasmodium falciparum [4]) [nM] | IC50 (Plasmodium falciparum [5]) [nM] | IC50 (Plasmodium falciparum [7]) [nM] | IC50 (Plasmodium falciparum [8]) [nM] | further results
Cc1cc(N2CCN(c3ccnc4cc(Cl)ccc34)CC2)nc(NCCO)n1 | – | – | 130 | 130 | –
Cc1ccc(Nc2nccc(N3CCN(c4ccnc5cc(Cl)ccc45)CC3)n2)cc1 | – | – | 130 | 130 | –
Clc1ccc2c(NCCCNc3cc(Cl)nc(N4CCOCC4)n3)ccnc2c1 | – | – | 50 | 50 | –
Clc1ccc2c(NCCNc3ccnc(N4CCOCC4)n3)ccnc2c1 | – | – | – | – | Activity (Plasmodium berghei): 93.9%
OCCNc1nccc(NCCCNc2ccnc3cc(Cl)ccc23)n1 | – | – | 50 | 50 | –
COc1cc(Nc2nc(C)cc(N3CCN(c4ccnc5cc(Cl)ccc45)CC3)n2)cc(OC)c1 | – | – | 130 | 130 | –
Clc1ccc2c(NCCCNc3cc(Cl)nc(Cl)n3)ccnc2c1 | – | – | 50 | 50 | –
Cc1cc(N2CCCCC2)nc(NCCNc2ccnc3cc(Cl)ccc23)n1 | 6 | 16 | – | – | –
Cc1cc(Nc2ccc3ccccc3c2)n2ncnc2n1 | – | – | – | – | IC50 [10]: > 200000 nM
Clc1ccc2c(NCCNc3ccnc(N4CCCCC4)n3)ccnc2c1 | – | – | 50 | 50 | –
Clc1ccc2c(NCCCNc3ccnc(Cl)n3)ccnc2c1 | – | – | 50 | 50 | –
Cc1cc(NCCNc2ccnc3cc(Cl)ccc23)nc(NCCCO)n1 | – | – | 50 | 50 | –
OCCCNc1nccc(NCCCNc2ccnc3cc(Cl)ccc23)n1 | – | – | 50 | 50 | –
Cc1cc(N2CCN(c3ccnc4cc(Cl)ccc34)CC2)nc(N2CCOCC2)n1 | – | – | 130 | 130 | –
Clc1ccc2c(NCCNc3ccnc(Cl)n3)ccnc2c1 | – | – | 50 | 50 | –
OCCCCNc1nccc(NCCCCNc2ccnc3cc(Cl)ccc23)n1 | – | – | 50 | 50 | –
CCN1CCN(c2nccc(NCCCNc3ccnc4cc(Cl)ccc34)n2)CC1 | – | – | 50 | 50 | –
Cc1cc(N2CCN(c3ccnc4cc(Cl)ccc34)CC2)nc(N2CCNCC2)n1 | – | – | 130 | 130 | –
CN1CCN(c2ccnc(NCCCNc3ccnc4cc(Cl)ccc34)n2)CC1 | 6 | 16 | – | – | –
Cc1cc(NCCCCNc2ccnc3cc(Cl)ccc23)nc(NCCCCO)n1 | – | – | 50 | 50 | –
Cc1cc(N2CCN(c3ccnc4cc(Cl)ccc34)CC2)nc(Nc2ccc(Cl)cc2)n1 | – | – | 130 | 130 | –
